Measurements reported in patent US20180369186A1, “METHOD FOR MODULATING AUTOPHAGY AND APPLICATIONS THEREOF” (JAWAHARLAL NEHRU CENTRE FOR ADVANCED SCIENTIFIC RESEARCH, priority 2015, published 2018).

What was measured:
Format in all cases: cell-based, human
EGFP-α-synuclein = EGFP-α-synuclein degradation assay in SH-SY5Y cells
Experimental: For EGFP-α-synuclein degradation assay, equal numbers of sub-confluent SH-SY5Y cells are seeded in 6 well dishes and allowed to attach for 24 h. Cells are transfected with EGFP-α-synuclein plasmid using Lipofectamine 2000 (Life technologies) and allowed to express for 24 h.
After treatments, cells are collected in Laemmli buffer to perform LC3 processing assay, P70S6K, GSK3β and 4E-BP1 immunoblotting. To validate EGFP-α-synuclein degradation by 6-Bio, treated cells are scraped and collected in growth medium. After washing with phosphate buffer, pellets are lysed in Laemmli buffer and boiled for 10 min.
Samples are electrophoresed on SDS-PAGE (8-15%) and then transferred onto PVDF (Bio-Rad) membrane using Transblot turbo (Bio-Rad). Transferred blots are stained with Ponceau S, probed with appropriate primary antibodies overnight and subsequently horseradish peroxidase conjugated secondary antibody. Signals are developed using enhanced chemiluminescence substrate (Clarity, Bio-Rad), imaged using a gel documentation system (G-Box, Syngene) and bands are quantified using image software (NIH). (FIGS. 4F and 5A)

MAP1LC3B = MAP1LC3B conversion assay in HeLa cells
Experimental: Total cell lysates are electrophoresed on different 1 percentages of SDS-PAGE based on the desired protein size and transferred onto PVDF membrane at constant current of 2 Ampere for 30 minutes (Transblot turbo, Bio-Rad Inc, USA). Transfer is confirmed by Ponceau S staining of blot and the blots scanned are used as loading controls. Blots are incubated overnight with 5% skim milk in primary antibody (Anti-GFP, Roche #11814460001, Anti-MAP1LC3B, CST #L7543). Secondary antibody used at 1:10.000 is goat anti-mouse (Bio-7 Rad #172-1011) or goat anti-rabbit antibody (Bio-Rad #172-1019) conjugated to HRP. Blots are developed by using ECL substrate (Thermo Scientific #34087 or Bio-Rad #170-5061) and images captured using auto capture program in Syngene G-Box, UK. image J (NIH) are used for quantitation of band intensities.
For mammalian cells, following appropriate treatments, cells are washed with ice cold PBS. Cells are then lysed in 100 μl of sample buffer (10% w/v SDS, 10 mM DTT, 20% v/v glycerol, 0.2 Tris-HCL pH 6.8, 0.05% w/v bromophenol blue) and then collected using a rubber cell scraper. The lysates are boiled at 99° C. for 15 minutes and stored at −20° C.

[1] = tested on: SH-SY5Y cells (autophagosomes and autolysosomes); assay: Tandem RFP-EGFP-LC3 assay in SH-SY5Y cells; conditions: 2 h
Experimental: Sub-confluent HeLa and/or SH-SY5Y cells are seeded into 60 mm cell culture dishes, then transfected with ptf LC3 construct and/or siRNA and allowed to express for 48 h. Cells are trypsinized, seeded again on poly-D-lysine coated cover slips in a 12 or 24 well plates and allowed to attach. After appropriate treatments, the coverslips containing cells are processed for imaging. For immunofluorescent antibody staining, the cover slips are incubated in primary antibody at 4° C. for overnight followed by secondary antibody incubation at room temperature.
For imaging the mammalian cells, after appropriate treatments, coverslips containing cells are fixed using 4% paraformaldehyde (PFA) (Sigma) and then permeabilized using Triton X-100 (0.2%, HiMedia). On slide, coverslips are mounted using antifade, Vectashield mounting medium (Vector laboratories). For antibody staining, coverslips are blocked using 5% BSA for 1 h at room temperature, then incubated with primary antibody at 4° C., overnight and then subsequently probed with corresponding fluorescent dye conjugated secondary antibody.

[2] = nutrient-rich and starvation conditions

O=C1Nc2cc(Br)ccc2/C1=C1/Nc2ccccc2/C1=N\O [6-Bio, (2′Z,3′E)-6-Bromoindirubin-3′-oxime]
reduction of EGFP-α-synuclein levels (EGFP-α-synuclein; 5 μM, 24 h, versus untreated): ~2 fold | EGFP-α-synuclein levels on co-treatment with 3-MA (EGFP-α-synuclein; with 3-methyl adenine (5 mM)): does not change

Cc1ccc(S(=O)(=O)/C=C/C#N)cc1 [Bay11, 3-[(4-methylphenyl)sulfonyl]-(2E)-propenenitrile]
MAP1LC3B-II/MAP1LC3B-I and MAP1LC3B-II/TUBB ratios, prolonged treatment (MAP1LC3B; 12 hours): significant reduction | MAP1LC3B-II/TUBB ratio with BFA (autophagosome synthesis) (MAP1LC3B; in the presence of BFA): reduces MAP1LC3B12 II/TUBB ratio | MAP1LC3B-II/MAP1LC3B-I ratio (MAP1LC3B; [2]): decreases MAP1LC3B-II/MAP1LC3B-I ratio | MAP1LC3B-II/TUBB ratio (MAP1LC3B; [2]): no significant changes

COc1cc(C=C(C#N)C(=O)Nc2nnc(C(F)(F)F)s2)ccc1OCc1ccc(C(F)(F)F)cc1C(F)(F)F [XCT 790, 3-[4-(2,4-Bis-trifluoromethylbenzyloxy)-3-methoxyphenyl]-2-cyano-N-(5-trifluoromethyl-1,3,4-thiadiazol-2-yl)acrylamide]
autolysosomes, fold vs control [1]: ~4 fold | autophagosomes, fold vs control [1]: ~2 fold
